Assay results published in US10111847B2, “Compounds and methods for modulating vascular injury” (The Regents of the University of California, priority 2012, dated 2018).

Experiments:
p65 subunit = assay: Nuclear translocation of p65 subunit in sv-VSMCs (immunofluorescence); assay type: cell-based, human; conditions: 100 nm, 30 min; TNFα 10 ng/ml 2 hrs
Experimental: Immunofluorescence for p65 (RelA): 15000 VSMCs or 30000 ECs were seeded on a 8-well chamber slide. Cells received 30 min of Maresin-1 pretreatment, followed by TNF-α for 2 hr. Cells were fixed in 2% paraformaldehyde, followed by permeabilization with ice-cold acetone (10 min) and 1% Triton X-100 (20 min). Cells were incubated overnight in a humidified chamber with anti-p65 antibody (Santa Cruz Biotechnology Inc.) followed by Alexa-fluor 488 tagged secondary antibody (Life Technologies) and were visualized under a fluorescent microscope.
FIGS. 16A-16D. VSMCs were grown in chamber slides and treated with vehicle or 100 nm of 7S or 7R-Maresin-1 with/without 10 ng/ml pertussis toxin for 30 min, followed by TNFα (10 ng/ml) for 2 hrs. Cells were fixed and subsequently stained with anti-p65 (Santa Cruz Biotechnology) and secondary antibodies (Alexa-488). (A-D) Representative images of Ctrl (A), TNFα (B), 7R-Maresin-1+TNFα (C) and 7R-Maresin-1+pertussis toxin (10 ng/ml)+TNFα. (E) Mean fluorescence of nucleus and cytoplasm were quantified from all groups and the net result of the ratio of nucleus over cytoplasmic mean fluorescence is depicted in the bar graph, as a measure of relative p65 nuclear translocation. (N>=3). […]

IKKα/β subunit [1] = assay: TNFα induced phosphorylation of IKKα/β in sv-ECs, western blot; assay type: cell-based, human; conditions: 100 nm, 30 min; TNFα 1 ng/ml 15 min
Experimental: (§1) Mar-1. VSMCs and ECs were lysed in buffer (20 mM Tris-Hcl, 137 mM NaCl, 10% Glycerol, 1% NP-40) with protease and phosphatase inhibitors (Halt inhibitor capsules, Pierce, Inc) by sonication on ice. The lysates were instantly snap frozen in liquid nitrogen and thawed back later for western blotting. After centrifugation (15,000 g for 20 minutes), the whole cell extract (supernatant) was collected and was heated at 100° C. in Laemlli buffer for 6 minutes. Lysates were run on Mini-Protean TGX gels
(§2) (Biorad) and transferred on PVDF membranes which were probed with appropriate primary and secondary antibodies and visualized for quantitation using q-dot nanocrystals (Life Technologies, Inc).
(§3) Cells were pretreated with 100 nm of 7S/7R-Maresin-1 for 30 min, followed by TNFα (10 ng/ml for VSMC and 1 ng/ml for EC) for 15 min. Whole cell lysates were collected and probed for pan and phospho IKK (Cell Signaling Inc.).
(§4) FIG. 18. IKK-phospho and total IKK western blotting image is representative of three independent experiments. Bar graph represents net quantitative densitometry analysis. N=3. P≤0.05, One-way ANOVA with Dunnett's post hoc test. *: P≤0.05 compared to control, unpaired t-test. †: P≤0.05 compared to TNFα, unpaired t-test. Error bars: SEM.

[2] = tested on: human saphenous vein vascular smooth muscle (sv-VSMC) cells; assay: TNFα induced superoxide production (DHE) in sv-VSMC (Maresin-1); assay type: cell-based; conditions: 100 nM; TNFα 10 ng/ml 4 hr
Experimental: Mar-1. Cells were grown in 8-well chamber slides at a density of 15000 cells/well for 2 days for VSMCs and 50000 cells/well for 2 days for ECs in a 96 well plate. After treatments, cells were incubated with dihydroethidium (DHE, 3 μM, Invitrogen) or CellRox (Invitrogen Inc, 5 μM for ECs) in media for 30 minutes at 37° C. in a humidified chamber with 5% CO2 protected from light. DAPI nuclear counter staining was utilized for DHE staining. For DHE, fluorescence was detected with TRITC filter allowing the detection of the DHE emission wavelength of 590-620 nm. Fluorescence quantitation was performed using ImageJ analysis software. For ECs, fluorescence measurements were taken using a Spectramax M2e plate reader.
FIGS. 13A-13D. Representative merged images of DHE staining, counterstained with DAPI. (A), Negative control. (B), TNFα at 10 ng/ml for 4 hr. […] (E) Quantitative comparison of DHE staining intensity in the nucleus of human saphenous vein vascular smooth muscle (sv-VSMC) cells, treated with TNFα and 7S and 7R-Maresin-1 with and without pertussis toxin. (F) Quantitative comparison of cellular ROS production by CellRox (Life technologies, Carlsbad, Calif.) in human saphenous vein endothelial (EC) cells treated with TNFα (1 ng/nil) and 7S-Maresin-1 (N>=3). […]

carotid artery = assay: Mouse carotid artery ligation model, neointima formation; assay type: in vivo, FVB Mice; conditions: intraperitoneal 100 ng/dose on days 0, 1, 3, 5 and 7; sacrificed at 14 days
Experimental: To examine the potential therapeutic effects of systemic administration of pro-resolving mediators in acute vascular injury, a standardized mouse model of carotid ligation was employed. FVB Mice (N=23) were treated with intraperitoneal administration of RvD2 (100 ng/dose), 7R Mar-1 (100 ng/dose) or vehicle on days 0 (4 hrs prior to carotid injury), 1, 3, 5 and 7. Total dose received was 500 ng/mouse. Unilateral carotid ligation was performed as a standardized model of vascular injury, induced by low shear. Animals were then sacrificed at 14 days and perfusion-fixed vessels explanted for analysis. Following elastin staining, neointima (NI) and medial (M) compartments were measured by a blinded observer, and ratios (area and average wall thickness) calculated. Analysis was performed at mid CCA level (2.5 mm from ligature).
FIG. 22. (A)-(C), depict a cross-section of a carotid artery at mid CCA level (2.5 mm from ligature) from carotid ligation mouse model administered vehicle (A), RvD2 (B), or 7R-Mar-1 (C). (D)-(E) depict NUM ratio of the cross-section of the carotid artery at mid CCA level from carotid ligation mouse model administered vehicle, RvD2, or 7R-Mar-1. […]

IKKα/β subunit [3] = assay: TNFα induced phosphorylation of IKKα/β in sv-VSMCs, western blot; assay type: cell-based, human; conditions: 100 nm, 30 min; TNFα 10 ng/ml 15 min
Experimental: as §1, §2, §3, §4

MCP-1 = MCP-1 expression in TNF-α stimulated VSMCs by qRT-PCR; assay type: cell-based, human; conditions: 10, 100 nM; TNF-α 10 ng/ml 18 hours; P<0.05
Experimental: FIGS. 15A-15D. Representative images of Calcein-AM labeled U937 monocytes adhered to human sv-VSMCs pretreated with vehicle (A, B) or 7S-Maresin-1 (C) or 7S-Maresin-1 and pertussis toxin (D) for 30 min, followed by TNFα at 10 ng/ml for 4 hr (B, C, D). (E) Quantitative analysis of U937 adhesion assay in human sv-VSMCs and (F) human sv-ECs (1 ng/ml TNFα used for EC cells). P≤0.05, One-way ANOVA with Dunnett's post hoc test. *: P≤0.05 compared to control, unpaired t-test. †: P≤0.05 compared to TNFα, unpaired t-test. ‡: P≤0.05 compared to TNFα+7S-Maresin-1, unpaired t-test. (G) VSMCs were pretreated with 7S-Maresin-1 or vehicle for 30 min, followed by TNFα at 10 ng/ml for 4 hr. Whole cell lysates were blotted for VCAM-1 (Pierce Inc.) and beta-actin (Sigma). VCAM-1 and beta-actin western blotting image is representative of three independent experiments. Bar graph represents net quantitative densitometry analysis. N=3. P=0.06, One-way ANOVA with Kruskal Wallis nonparametric test. P=0.07 of TNFα, compared to control, Mann Whitney test. P=0.20 of 7S-Maresin-1 at 10 nm and 100 nm compared to TNFα, Mann Whitney test. Error bars: SEM. […] Expression of MCP-1 was measured by qRT-PCR, and normalized to unstimulated cells (n=3, results are mean±SEM, P<0.05 for Mar-1 (10 and 100 nM) vs TNF alone, unpaired t-test).

Row | Structure (SMILES) | nuclear translocation of p65 subunit in human sv-VSMCs (p65 subunit) | TNFα induced phosphorylation of IKKα/β subunit in human sv-ECs (IKKα/β subunit [1]) | TNF-α-induced superoxide production in VSMC [2] | neointima formation following carotid artery ligation (carotid artery) | TNFα induced phosphorylation of IKKα/β subunit in human sv-VSMCs (IKKα/β subunit [3]) | MCP-1 expression by TNF-α stimulated VSMCs (MCP-1)
1 | CC/C=C\C/C=C\C[C@@H](O)\C=C/C=C/C=C/[C@@H](O)C/C=C\CCC(=O)O [7R-Maresin-1, 7R,14S-dihydroxydocosa-4Z,8E,10E,12Z,16Z,19Z-hexaenoic acid] | Inhibit | Reduce | Reduce | Reduces | Reduce | 
2 | CC/C=C\C/C=C\CC(O)\C=C/C=C/C=C/C(O)C/C=C\CCC(=O)O (stereo not drawn) [Mar-1, maresin 1 (7, 14-dihydroxy DHA)] |  |  |  |  |  | reduced
